This assay addresses Fatty acid synthase (Homo sapiens) (UniProt P49327). In words: inhibition of human FAS-TE enzyme activity – biochemical, kinetic fluorescence intensity, dose response, SAR follow-up (AID 652165). The settings on record: recombinant FAS-TE, OMFH fluorogenic substrate.

Calls of active or inactive are those of the source.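 The calls were made as follows: active = IC50 at or below 20 µM; inactive = the rest.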

Sequence of Fatty acid synthase (Homo sapiens) (P49327 whole entry, looked up): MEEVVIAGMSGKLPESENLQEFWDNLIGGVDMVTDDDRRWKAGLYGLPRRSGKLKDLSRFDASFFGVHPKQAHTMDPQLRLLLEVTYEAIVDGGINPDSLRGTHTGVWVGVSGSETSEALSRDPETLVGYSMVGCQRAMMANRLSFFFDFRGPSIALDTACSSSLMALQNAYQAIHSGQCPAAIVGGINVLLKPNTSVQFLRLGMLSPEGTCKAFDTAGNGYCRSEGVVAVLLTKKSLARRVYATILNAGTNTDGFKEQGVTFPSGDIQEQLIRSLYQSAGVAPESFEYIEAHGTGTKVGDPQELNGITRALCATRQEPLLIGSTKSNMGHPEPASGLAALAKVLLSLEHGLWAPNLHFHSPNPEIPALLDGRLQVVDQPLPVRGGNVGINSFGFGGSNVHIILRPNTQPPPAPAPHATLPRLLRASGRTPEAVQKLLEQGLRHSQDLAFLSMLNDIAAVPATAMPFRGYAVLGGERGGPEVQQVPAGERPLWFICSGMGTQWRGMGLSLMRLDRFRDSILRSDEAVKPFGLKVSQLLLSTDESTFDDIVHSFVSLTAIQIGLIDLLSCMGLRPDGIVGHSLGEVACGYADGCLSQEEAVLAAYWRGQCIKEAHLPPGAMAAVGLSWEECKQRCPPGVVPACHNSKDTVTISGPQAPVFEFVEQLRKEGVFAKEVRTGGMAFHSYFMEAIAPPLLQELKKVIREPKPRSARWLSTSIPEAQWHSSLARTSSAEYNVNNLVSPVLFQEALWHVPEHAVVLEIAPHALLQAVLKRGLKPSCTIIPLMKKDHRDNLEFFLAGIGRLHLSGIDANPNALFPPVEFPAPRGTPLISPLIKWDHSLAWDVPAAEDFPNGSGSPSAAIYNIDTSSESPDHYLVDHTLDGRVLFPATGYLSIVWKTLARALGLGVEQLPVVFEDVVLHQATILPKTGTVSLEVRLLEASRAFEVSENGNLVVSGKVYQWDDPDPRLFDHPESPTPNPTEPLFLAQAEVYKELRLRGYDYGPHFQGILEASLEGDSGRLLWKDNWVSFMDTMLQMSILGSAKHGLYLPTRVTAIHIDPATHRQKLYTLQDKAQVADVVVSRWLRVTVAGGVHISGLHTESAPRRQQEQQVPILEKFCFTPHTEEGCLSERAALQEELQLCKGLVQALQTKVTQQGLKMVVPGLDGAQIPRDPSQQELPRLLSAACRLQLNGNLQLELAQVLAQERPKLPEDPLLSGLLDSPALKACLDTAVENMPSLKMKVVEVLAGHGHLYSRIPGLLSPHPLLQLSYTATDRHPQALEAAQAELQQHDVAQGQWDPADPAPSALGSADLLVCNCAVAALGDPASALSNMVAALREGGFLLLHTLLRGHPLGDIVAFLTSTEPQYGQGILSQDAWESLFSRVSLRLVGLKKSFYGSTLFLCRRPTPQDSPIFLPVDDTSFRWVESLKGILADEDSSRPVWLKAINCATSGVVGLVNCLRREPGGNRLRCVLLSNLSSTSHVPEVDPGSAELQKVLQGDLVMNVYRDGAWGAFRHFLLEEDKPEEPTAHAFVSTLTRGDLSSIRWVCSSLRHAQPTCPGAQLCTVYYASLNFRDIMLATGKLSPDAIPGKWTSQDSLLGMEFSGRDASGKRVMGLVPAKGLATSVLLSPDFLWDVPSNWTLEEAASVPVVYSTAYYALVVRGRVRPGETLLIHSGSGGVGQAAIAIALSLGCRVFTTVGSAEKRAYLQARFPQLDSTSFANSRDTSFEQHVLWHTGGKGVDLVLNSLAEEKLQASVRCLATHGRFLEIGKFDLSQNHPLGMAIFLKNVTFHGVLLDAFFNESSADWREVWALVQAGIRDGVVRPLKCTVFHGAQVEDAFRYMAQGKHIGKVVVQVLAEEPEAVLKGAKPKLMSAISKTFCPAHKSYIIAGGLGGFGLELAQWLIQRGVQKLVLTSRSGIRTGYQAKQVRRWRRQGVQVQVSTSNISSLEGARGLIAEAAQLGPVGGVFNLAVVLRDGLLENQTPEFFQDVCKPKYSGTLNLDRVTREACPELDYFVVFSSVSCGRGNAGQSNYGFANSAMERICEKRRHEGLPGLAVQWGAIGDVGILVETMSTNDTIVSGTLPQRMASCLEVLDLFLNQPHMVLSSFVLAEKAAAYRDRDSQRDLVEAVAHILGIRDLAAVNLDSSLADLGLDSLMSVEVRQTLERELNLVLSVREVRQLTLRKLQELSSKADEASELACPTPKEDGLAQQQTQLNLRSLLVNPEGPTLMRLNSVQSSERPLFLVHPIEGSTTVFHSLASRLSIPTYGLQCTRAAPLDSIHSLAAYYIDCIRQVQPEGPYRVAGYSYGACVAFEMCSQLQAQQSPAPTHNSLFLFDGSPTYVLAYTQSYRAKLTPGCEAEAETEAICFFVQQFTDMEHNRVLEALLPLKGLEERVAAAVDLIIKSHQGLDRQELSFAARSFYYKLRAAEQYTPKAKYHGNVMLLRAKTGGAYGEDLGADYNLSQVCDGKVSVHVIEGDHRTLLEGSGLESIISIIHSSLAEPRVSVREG

In general, IC50 refers to the midpoint of a concentration-inhibition curve. Take `O=C(Nc1nc(-c2ccc(S(=O)(=O)N3CCCC3)cc2)cs1)C1CCC1`: the 50% inhibitory concentration (IC50) is 347 nM.
As to `O=C(Nc1nc(-c2ccc(S(=O)(=O)N3CCCC3)cc2)cs1)C1CC1`, the IC50 is 658 nM.
For the compound `O=C(Nc1nc(-c2ccc(S(=O)(=O)N3CCOCC3)cc2)cs1)C1CCCC1`, the IC50 is > 80000 nM (inactive).
Consider `CC(C)(C)OC(=O)Nc1nc(-c2ccc(S(=O)(=O)N3CCOCC3)cc2)cs1`, for which the IC50 entry is “inactive”.
Next, `CC(=O)Nc1nc(-c2ccc(S(=O)(=O)N3CCSCC3)cc2)cs1`: > 80000 nM (inactive); `CCCCC(=O)Nc1nc(-c2ccc(S(=O)(=O)N(CC)CC)cc2)cs1`: 169 nM.
Next, `CC(C)C(=O)Nc1nc(-c2ccc(S(=O)(=O)N(C)C)cc2)cs1`: 559 nM; `CCN(CC)S(=O)(=O)c1ccc(-c2csc(NC(=O)C3CCC3)n2)cc1`: 966 nM; `CCC(=O)Nc1nc(-c2ccc(S(=O)(=O)N(C)C)cc2)cs1`: 1090 nM.
Next, `CC(C)CC(=O)Nc1nc(-c2ccc(S(=O)(=O)N3CCOCC3)cc2)cs1`: 6620 nM; `CCCCC(=O)Nc1nc(-c2ccc(S(=O)(=O)N3CCC(C)CC3)cc2)cs1`: 533 nM; `O=C(Nc1nc(-c2ccc(S(=O)(=O)N3CCCC3)cc2)cs1)C1CCCC1`: 751 nM.
Regarding `CCCCC(=O)Nc1nc(-c2ccc(S(=O)(=O)N3CCSCC3)cc2)cs1`, the IC50 is 649 nM.
Under `CN(C)S(=O)(=O)c1ccc(-c2csc(NC(=O)C3CCC3)n2)cc1` stands 1360 nM.
Turning to `CN(C)S(=O)(=O)c1ccc(-c2csc(NC(=O)C3CC3)n2)cc1`, the IC50 was 1290 nM.
Next, `O=C(Nc1nc(-c2ccc(S(=O)(=O)N3CCOCC3)cc2)cs1)C1CCCCC1`: > 80000 nM (inactive); `CCC(CC)C(=O)Nc1nc(-c2ccc(S(=O)(=O)N3CCOCC3)cc2)cs1`: 307 nM.
Next, `CCC(=O)Nc1nc(-c2ccc(S(=O)(=O)N3CCC(C)CC3)cc2)cs1`: > 80000 nM (inactive); `CCN(CC)S(=O)(=O)c1ccc(-c2csc(NC(=O)C3CCCCC3)n2)cc1`: 3140 nM; `CCN(CC)S(=O)(=O)c1ccc(-c2csc(NC(=O)C(C)C)n2)cc1`: 318 nM.
Under `CCCCC(=O)Nc1nc(-c2ccc(S(=O)(=O)N3CCCC3)cc2)cs1` stands 193 nM.
As for `O=C(Nc1nc(-c2ccc(S(=O)(=O)N3CCOCC3)cc2)cs1)C1CC1`, the IC50 is 5110 nM.
Under `CCCCC(=O)Nc1nc(-c2ccc(C(=O)N3CCOCC3)cc2)cs1` stands “inactive”; under `CC(=O)Nc1nc(-c2ccc(S(=O)(=O)N3CCOCC3)cc2)cs1`, 12000 nM.
Under `CC(C)C(=O)Nc1nc(-c2ccc(S(=O)(=O)N3CCOCC3)cc2)cs1` stands 875 nM; under `CC(C)C(=O)Nc1nc(-c2ccc(S(=O)(=O)N3CCCC3)cc2)cs1`, 295 nM; under `CC1CCN(S(=O)(=O)c2ccc(-c3csc(NC(=O)C(C)C)n3)cc2)CC1`, 643 nM.
Under `CCCCC(=O)Nc1nc(-c2ccc(S(=O)(=O)N3CCOCC3)cc2)cs1` stands 552 nM; under `CCC(C)C(=O)Nc1nc(-c2ccc(S(=O)(=O)N3CCOCC3)cc2)cs1` (centres undefined), 289 nM.
Consider `CCN(CC)S(=O)(=O)c1ccc(-c2csc(NC(=O)C3CCCC3)n2)cc1`, for which the IC50 is 1180 nM.
Under `CN(C)S(=O)(=O)c1ccc(-c2csc(NC(=O)C3CCCC3)n2)cc1` stands 1500 nM; under `CCCCC(=O)Nc1nc(-c2cccc(S(=O)(=O)N3CCOCC3)c2)cs1`, 18100 nM; under `CCC(=O)Nc1nc(-c2ccc(S(=O)(=O)N3CCCC3)cc2)cs1`, 644 nM.
Under `CCC(C)C(=O)Nc1nc(-c2ccc(S(=O)(=O)N(CC)CC)cc2)cs1` (centres undefined) stands 296 nM; under `CCC(=O)Nc1nc(-c2ccc(S(=O)(=O)N3CCOCC3)cc2)cs1`, 4160 nM; under `CC1CCN(S(=O)(=O)c2ccc(-c3csc(NC(=O)C4CC4)n3)cc2)CC1`, > 80000 nM (inactive).
Under `CCC(=O)Nc1nc(-c2ccc(S(=O)(=O)N(CC)CC)cc2)cs1` stands 3980 nM.
As to `O=C(Nc1nc(-c2ccc(S(=O)(=O)N3CCOCC3)cc2)cs1)C1CCC1`, the IC50 was 3450 nM.
Next, `CCN(CC)S(=O)(=O)c1ccc(-c2csc(NC(=O)C3CC3)n2)cc1`: 2470 nM.

(Values after PubChem BioAssay AID652165 (Sanford-Burnham Center for Chemical Genomics, 2013).)
